Test results as given in patent US10060933B2, “Methods for diagnosis and treatment of amyotrophic lateral sclerosis based on an increased level of interaction between TDP-43 polypeptide and NF-KB P65 polypeptide” (UNIVERSITE LAVAL, priority 2011, dated 2018).
Entries after “also recorded” stand apart in the source; their conditions may differ.

Experiments:
[1] = test system: GFAP promoter activity; experiment: In vivo bioluminescence imaging of GFAP-luc in spinal cord; set-up: species or system mouse; settings: for GFAP promoter activity / GFAP-luc expression (bioluminescence) in spinal cord: GFAP-luc/TDP-43^Wt mice, 3 mg/kg i.p. twice a week for 10 weeks from 30 weeks, 36 and 40 weeks, vs untreated, 3 mg/kg
Protocol: (§1) To study the in vivo effect of NF-κB inhibition on disease progression, we injected TDP-43^wt; GFAP-luc double transgenic mice with 3 mg/kg body weight of WA twice a week for 10-weeks starting at 30-weeks. […] We used TDP-43^wt; GFAP-luc double transgenic mice because the reporter luciferase (luc) allowed the longitudinal and non-invasive biophotonic imaging with CCD camera of the GFAP promoter activity which is a target of activated NF-κB. To analyse the spatial and temporal dynamics of astrocytes activation/GFAP induction in TDP-43 mouse model, we performed series of live imaging experiments. […] The downregulation of GFAP promoter activity was further confirmed in these mice using GFAP immunofluorescence of spinal cord sections of TDP-43^Wt mice (both drug-treated and untreated) (FIG. 8F). […] Down-regulation of GFAP along with reduction in active p65 levels in withaferin treated mice prompted us to analyse behavioural changes in these mice. […] The withaferin treated mice also had 40% reduction in the number of partially denervated neuromuscular junction (NMJ) (FIGS. 8E&G).
Age matched control non-transgenic animals (n=10) and in TDP-43^Wt (n=10) littermates were injected twice a week with 0.9% saline intra-peritoneally. All the behavioral and imaging experiments were conducted in a double blind manner as such the experimenter had no knowledge of the drug treatment or the genotype of animals.
As previously described^31, 32, the images were gathered using IVIS® 200 Imaging System (CaliperLSXenogen, Alameda, Calif., USA). Twenty-five minutes prior to imaging session, the mice received intraperitoneal (i.p.) injection of the luciferase substrate D-luciferine (150 mg/kg—for mice between 20 and 25 g, […] of a solution of 20 mg/ml of D-luciferine dissolved in 0.9% saline was injected) (CaliperLS-Xenogen).

[2] = test system: peripherin; experiment: Peripherin immunofluorescence and immunoblot of spinal cord; type: in vivo, mouse; settings: TDP-43^Wt mice, treated vs untreated
Protocol: as §1
Snap frozen spinal cords of mice were harvested with lysis buffer containing 25 mM HEPES-NaOH (pH 7.9), 150 mM NaCl, 1.5 mM MgCl2, 0.2 mM EDTA, 0.5% Triton-X-100, 1 mM dithiothreitol and protease inhibitor cocktail. Protein samples were estimated using Bradford method. The lysate was incubated with 50 μl of Dynabeads (Protein-G beads, Invitrogen), anti-TDP-43 polyclonal (ProteinTech, Chicago, Ill., USA) or anti-peripherin polyclonal antibody (AB1530, Chemicon, Billerica, Mass., USA). After subsequent washing, the beads were incubated overnight at 4° C. with […] of tissue lysate. Antibody-bound complexes were eluted by boiling in Laemmli sample buffer. Supernatants were resolved by 10% SDS-PAGE and transferred on nitrocellulose membrane (Biorad, Hercules, Calif., USA). The membrane was incubated with anti-ubiquitin antibody (1:1000, Abcam, Cambridge, Mass., USA). For other western blot assays, blots were incubated with primary antibodies against human monoclonal TARDBP antibody (1:1000, Abnova, clone E2-D3), peripherin polyclonal (1:1000, Chemcion—AB1530), peripherin monoclonal (1:500, Chemicon, AB1527), Clone NR4 for NF-L (1:1000, Sigma), Clone NN18 for NF-M (1:1000, Millipore) and Clone N52 for NF-H (1:1000, Millipore). Immunoreactive proteins were then visualized by chemiluminescence (Perkin and Elmer, Santa Clara, Calif., USA) as described previously (Dequen et al., 2008). Actin (1:10000, Chemicon) is used as a loading control.
(§2) 4% Paraformaldehyde (PFA) fixed spinal cord and brain sections of mice were sectioned and fixed on slides. For immunohistochemistry, tissues were treated with hydrogen-peroxide solution before permeabilisation. […]

[3] = test system: GFAP; experiment: GFAP immunofluorescence of spinal cord sections; type: in vivo, mouse; settings: GFAP-luc/TDP-43^Wt mice, treated vs untreated
Protocol: as §1, §2

[4] = test system: neuromuscular junctions; experiment: Neuromuscular junction staining and count; type: in vivo, mouse
Protocol: For monitoring the neuromuscular junctions, 25 mm thick muscle sections were incubated for 1 h in 0.1 M glycine in PBS for 2 h at RT and then stained with Alexa Fluor 594-conjugated α-bungarotoxin (1:2000, Molecular Probes/Invitrogen detection technologies, Carlsbad, Calif., USA) diluted in 3% BSA in PBS for 3 h at RT. After washing in PBS, the muscle sections were blocked in 3% BSA, 10% goat serum and 0.5% Triton X-100 in PBS overnight at 48° C. The next day, the sections were incubated with mouse antineurofilament antibody 160 K (1:2000, Temecula, Calif., USA) and mouse anti-synaptophysin (Dako, Mississauga, ON, Canada) in the same blocking solution overnight at 48° C. After washing for 5 h, muscle sections were incubated with goat anti-mouse Alexa Fluor 488-conjugated secondary antibody (Probes/Invitrogen detection technologies, Carlsbad, Calif., USA) diluted 1:500 in blocking buffer for 3 h at RT. Three hundred neuromuscular junctions were counted per animal sample, discriminating both innervated and denervated junctions as described above. […]

[5] = test system: TDP-43^G348C mice; experiment: Accelerating rotarod in TDP-43^G348C mice; type: in vivo, mouse; settings: WA-treated vs untreated TDP-43^G348C mice
Protocol: Accelerating rotarod analysis was performed in TDP-43^G348C mice at various ages from 8 wk to 52 wk, and time taken by the mice to fall from the rotarod is used as rotarod performance. WA treatment period is marked as drug treatment period. Error bars represent mean±SEM (n=10 each group) (FIG. 25).
Accelerating rotarod was performed on mice at 4 rpm speed with 0.25 rpm/sec acceleration as described elsewhere^30. Mice were subjected to three trials per session and every two weeks.

Structure (SMILES): CC1=C(CO)C(=O)O[C@@H]([C@@H](C)[C@H]2CC[C@H]3[C@@H]4C[C@H]5O[C@]56[C@@H](O)C=CC(=O)[C@]6(C)[C@H]4CC[C@]23C)C1 [Withaferin A]
- GFAP promoter activity / GFAP-luc expression (bioluminescence) in spinal cord [1]: Significant reduction
- GFAP promoter activity / GFAP-luc expression (bioluminescence) in spinal cord ([1]; listed as WA): progressive reduction in GFAP-luc expression
- GFAP luciferase activity after cessation of the drug treatment ([1]; withaferin treated TDP-43 transgenic mice after cessation of treatment): increase in GFAP luciferase activity
- peripherin in spinal cord (immunofluorescence, polyclonal antibody) ([2]; listed as Withaferin): reduced levels of peripherin
- peripherin levels in spinal cord (western blot / immunoblot, monoclonal antibody) ([2]; listed as Withaferin): reduced levels of peripherin
- peripherin in spinal cord (immunofluorescence, polyclonal antibody) ([2]; listed as withaferin): reduction of peripherin aggregates
- peripherin levels in spinal cord (western blot / immunoblot, monoclonal antibody) ([2]; listed as withaferin): reduced
- GFAP activation (GFAP immunofluorescence of spinal cord sections) [3]: downregulation; also recorded: significantly low GFAP activation
- reduction in the number of partially denervated neuromuscular junction (NMJ) ([4]; withaferin treated TDP-43^Wt mice vs untreated): 40%
- number of partially denervated muscle (NMJ frequency) ([4]; withaferin treated TDP-43^Wt mice, age-matched untreated 15±5%): 9±4%
- motor performance (accelerating rotarod, time to fall) [5]: significantly better motor performance
